{
  "source": "patent US20240002846A1",
  "about": "“COMPOSITIONS AND METHODS FOR THE DIAGNOSIS AND TREATMENT OF ITCH” (Duke University, priority 2020, published 2024)",
  "key": {"hTRPV4": {"target": "T1, hTRPV4 (Homo sapiens, UniProt Q9HBA0)", "T1 construct": "expressed in transfected cells; host or cells: HEK293 (ATCC CRL-1573)", "assay": "Single-channel recordings of hTRPV4 in HEK293 cells", "type": "biochemical", "conditions": "+60 mV; 100 nM GSK101 or 5 μM LPC 18:1", "description": "Cell culture and transfection. HEK293 cells (ATCC® CRL-1573) were cultured on poly-D-lysine coated coverslips in 24-well plate containing DMEM media with high-Glucose (Gibco, Gaithersburg, MD) supplemented with 10% fetal bovine serum (FBS, HyClone Laboratories, Logan, UT) and 100 U/mL of penicillin/streptomycin (Gibco, Gaithersburg, MD). Cell cultures were maintained with 5% of CO2 in a humidified incubator at 37° C. HEK cells were transfected with rat or human wild type or mutant TRPV4 channels with EGFP or YFP coupled to their C-termini (1.5 μg of plasmid for excised patch clamp and Ca^2+ imaging and 200 ng for single-channel experiments). The jetPEI™ Polyplus transfection reagent (Polyplus Transfection, New York, NY) for electrophysiology or Lipofectamine™ 2000 Reagent (Invitrogen, Waltham, MA) for Ca^2+ imaging were used for transfections per manufacturer's instructions as previously described (Chen et al. Pain 2014, 155, 2662-2672; Morales-Lazaro et al. Nat. Commun. 2016, 7, 13092). To investigate whether miR-146a can directly activate TRPV1 channels or indirectly via TLRs, HEK293 cells were transfected with rTRPV1 or co-transfected rTRPV1 with rTLR7, rTLR2, or rTLR6 (Addgene, Watertown, MA) for Ca^2+ imaging assay. Control cells were transfected with GFP or YFP.\nFor single-channel recordings, Borosilicate glass […]) pipettes were used. Recordings were obtained at +60 mV by acquiring several traces of 1-3 s duration. The effect of GSK1016790A or LPC 18:1 on single TRPV4 channels was studied in inside-out. Currents were filtered at 2 kHz and sampled at 5 kHz. […] Single-channel openings and closures were identified with the half-threshold crossing technique (Morales-Lazaro et al. Nat. Commun. 2016, 7, 13092). The channel open probability was calculated as the sum of the total open time divided by the sweep duration. Dwell times and amplitude histograms in the closed or open states were collected in logarithmic time histograms according to the Sine-Sigworth transformation (Sigworth et al. Biophys. J. 1987, 52, 1047-1054). Sums of three or two exponential components were fitted to histograms using a least-squares algorithm."}, "mice": {"tested_on": "mice", "assay": "Scratching behavior after i.d. injection into dorsal neck skin", "type": "in vivo, mouse", "conditions": "i.d. into dorsal neck, LPA 18:1 500 μg, LPC 50-500 μg, LPC species at the same dose", "description": "Behavioral assessment. Mice were shaved at the dorsal neck 1 d before experiments. Mice were allowed to acclimate to a Plexiglas chamber for at least 30 min before testing and received intradermal (i.d.) injection of 50 μL of LPA 18:1, LPC, LPC 14:0, LPC 16:0, LPC 18:0, LPC 18:1, miR-146a mimic, miR-146a scramble, ATP or vehicles through a 30-gauge needle (Becton Dickinson, Franklin Lakes, NJ) into the neck skin. After injections, mice were immediately placed back to the chamber, and the scratching behavior was recorded by a Panasonic video camera for 30 min. Hind limb scratching behavior directed toward the injected area at the nape of neck was observed. One scratch is defined as a lifting of the hind limb toward the injection site and then a replacing of the limb back to the floor, regardless of how many scratching strokes take place between those two movements. Behavioral analysis was conducted by observers blinded to genotype."}, "hTRPV4-R269H": {"target": "T2, hTRPV4-R269H (Homo sapiens, UniProt Q9HBA0, R269H)", "T2 construct": "expressed in transfected cells; host or cells: HEK293", "T2 sequence (Q9HBA0 whole entry R269H)": "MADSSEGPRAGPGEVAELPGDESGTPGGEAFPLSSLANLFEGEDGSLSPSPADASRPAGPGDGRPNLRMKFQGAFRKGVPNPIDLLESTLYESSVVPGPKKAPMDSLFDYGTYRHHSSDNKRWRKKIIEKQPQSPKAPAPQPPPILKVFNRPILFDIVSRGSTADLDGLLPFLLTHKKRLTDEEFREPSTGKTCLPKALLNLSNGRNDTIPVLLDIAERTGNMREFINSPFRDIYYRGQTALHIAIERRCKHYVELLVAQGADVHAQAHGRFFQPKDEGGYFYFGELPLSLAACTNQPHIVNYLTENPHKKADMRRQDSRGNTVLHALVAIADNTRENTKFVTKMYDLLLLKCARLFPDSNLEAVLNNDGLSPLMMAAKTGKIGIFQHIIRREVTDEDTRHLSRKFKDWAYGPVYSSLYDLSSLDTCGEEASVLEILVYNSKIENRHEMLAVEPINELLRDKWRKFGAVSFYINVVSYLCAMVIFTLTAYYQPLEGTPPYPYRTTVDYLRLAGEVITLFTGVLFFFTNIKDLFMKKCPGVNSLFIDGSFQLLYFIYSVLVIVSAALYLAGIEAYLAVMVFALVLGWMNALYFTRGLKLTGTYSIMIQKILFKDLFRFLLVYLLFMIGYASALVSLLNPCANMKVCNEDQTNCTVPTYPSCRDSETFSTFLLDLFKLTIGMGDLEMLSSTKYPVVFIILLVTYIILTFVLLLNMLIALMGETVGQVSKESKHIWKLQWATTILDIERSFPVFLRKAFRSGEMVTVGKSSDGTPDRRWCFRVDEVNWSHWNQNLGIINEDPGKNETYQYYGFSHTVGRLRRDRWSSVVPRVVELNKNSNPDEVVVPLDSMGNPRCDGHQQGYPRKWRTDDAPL", "assay": "Inside-out patch-clamp, hTRPV4-R269H", "type": "biochemical", "conditions": "5 μM LPC 18:1", "description": "Cell culture and transfection. HEK293 cells (ATCC® CRL-1573) were cultured on poly-D-lysine coated coverslips in 24-well plate containing DMEM media with high-Glucose (Gibco, Gaithersburg, MD) supplemented with 10% fetal bovine serum (FBS, HyClone Laboratories, Logan, UT) and 100 U/mL of penicillin/streptomycin (Gibco, Gaithersburg, MD). Cell cultures were maintained with 5% of CO2 in a humidified incubator at 37° C. HEK cells were transfected with rat or human wild type or mutant TRPV4 channels with EGFP or YFP coupled to their C-termini (1.5 μg of plasmid for excised patch clamp and Ca^2+ imaging and 200 ng for single-channel experiments). […]\nElectrophysiology. Currents were recorded using the inside-out configuration of the patch-clamp technique (Hamill et al. Pflugers Arch. 1981, 391, 85-100). […] Mean current values in response to GSK1016790A or LPC 18:1 were measured after channel activation had reached the steady-state (˜3 min). […] Currents were low-pass filtered at 2 kHz and sampled at 10 kHz with an EPC 10 amplifier (HEKA Elektronik) and were plotted and analyzed with Igor Pro (Wavemetrics Inc.)."}},
  "note": "Entries after “also recorded” stand apart in the source; their conditions may differ.",
  "data": [
    {"substance": "LPC 18:1", "values": [
      {"measurement": "open level (single-channel) amplitude", "setting": "hTRPV4", "value": "3.27±0.41", "unit": "pA"},
      {"measurement": "open probability (Po)", "setting": "hTRPV4", "value": "0.75±0.08"},
      {"measurement": "single channel conductance (gi)", "setting": "hTRPV4", "value": 54.5, "unit": "pS"},
      {"measurement": "scratching behavior (itch) induced by i.d. injection of lipid", "setting": "mice", "value": "caused robust itch; also recorded: most potent"},
      {"measurement": "scratching behavior (itch) induced by i.d. injection of lipid", "setting": "mice; listed as LPC (18:1)", "value": "the most potent"},
      {"measurement": "average activation of currents, normalized to 1 μM GSK101", "setting": "hTRPV4-R269H", "value": "42±6", "unit": "%"}
    ]}
  ]
}
